According to patent US9132099B2, “Medical implants and methods for regulating the tissue response to vascular closure devices” (Vascular Therapies LLC, priority 2001, dated 2015):
Starred links: 1 amine or outer side, 2 acyl side, 3 side chain; linkers in the order of their positions; H or OH if unused. Positions of bridges follow the written chain, without caps; N, C: chain ends. Non-standard residues stand in square brackets, D forms with d. Residues, ends and D or L forms follow the SMILES beside them. Chains are numbered I, II in the order given. Actinocin(9to1) = Cc1c2oc3c(C)ccc(C(=O)[*:1])c3nc-2c(C(=O)[*:2])c(N)c1=O; NMeV = CN[C@H](C(=O)O)C(C)C; Sar = CNCC(=O)O

How the values were obtained:
[1] = test system: Fibroblast; assay: Fibroblast inhibition on drug-saturated collagen matrix discs; format: cell-based; conditions: collagen matrix disc, compound about 5 μg/cm^2, cells counted five days later
Method: (§1) Prefabricated collagen matrices were placed in different antiproliferative drug solutions until complete saturation occurred. […] The collagen matrices were saturated with these compounds at a concentration of 25 μg/ml lyophilized, washed with 0.066 M phosphate buffer of pH 7.4 at 37° C. for 24 hours and cut in the shape of a disc with density of compound of about 5 μg/cm^2. After washing, sterile discs 15 mm in diameter were placed in a 24-well culture plate, and cells were seeded at a density of 5,000/cm^2. Five days later, cell number was counted and enzymatic activity evaluated in the aliquots of media by chromogenic substrate hydrolysis and spectrophotometry.

[2] = test system: smooth muscle cells; assay: Growth of smooth muscle cells seeded on collagen matrices; format: cell-based; conditions: with changes of media, 7 days observation
Method: To evaluate this parameter, smooth muscle cells at a density of 5,000 cells/cm^2 are seeded onto control tissue culture surface and testing matrices.

[3] = test system: Elastase; assay: Elastase activity in culture media, chromogenic substrate hydrolysis; format: biochemical; conditions: aliquots of media, five days, plain matrix = 100
Method: as §1

[4] = test system: Collagenase; assay: Collagenase activity in culture media, chromogenic substrate hydrolysis; format: biochemical; conditions: aliquots of media, five days, plain matrix = 100
Method: as §1, with “spectrophotometry. Among the tested agents in this comparative in vitro test, paclitaxel and rapamycin (sirolimus) performed similarly.” for “spectrophotometry.”

[5] = test system: SMC; assay: Smooth muscle cell inhibition on drug-saturated collagen matrix discs; format: cell-based; conditions: collagen matrix disc, compound about 5 μg/cm^2, cells counted five days later
Method: as §1

[6] = In vitro elution of dexamethasone from collagen matrix; conditions: by HPLC
[7] = test system: Human Endothelial Cells; assay: [3H]-thymidine uptake assay, human endothelial cells; format: cell-based
Method: (§2) Human smooth muscle cells and endothelial cells (Cambrex Corp., formerly Clonetics Corp., East Rutherford, N.J.) were seeded (100,000 cells) in 24-well plates overnight. Both cell types were grown and maintained in Opti-MEM (Invitrogen, Carlsbad, Calif.) and 5% fetal bovine serum at 37° C. in a 5% carbon dioxide and 95% atmospheric air. […] Each cell type was allowed to grow for […], last four hours in the presence of [^3H]-thymidine.
(§3) Proliferation of cells was quantified as new DNA synthesis using [^3H]-thymidine uptake assay. After 72 hours of culture, cells were washed twice with cold phosphate buffered saline (PBS), and 1 ml of methanol was added to the contents of each well. The plates were kept at 4° C. for 60 minutes, the cells then washed once with cold PBS, and 500 μl of 0.2 m M NaOH was added to each well, and the plates kept at 4° C. for 30 minutes. The contents of each well were transferred into scintillation vials, and liquid scintillation fluid was added to quantify radioactivity using a liquid scintillation counter and the results expressed as counts per minute. Results are shown in Tables 12 and 13 and corresponding FIGS. 16 and 17, respectively.

[8] = test system: Human Smooth Muscle Cells; assay: [3H]-thymidine uptake assay, human smooth muscle cells; format: cell-based
Method: as §2, §3

[9] = Rate of drug release from collagen matrix in vitro, batch assay; format: physicochemical; conditions: collagen matrix saturated with the drug
Method: Aliquots are collected at various time intervals from the wells. A combination of dispersed and conjugated forms is also prepared. […] The samples are placed in wells and 1 ml of elution media containing serum are added. Aliquots are taken every hour.
These measurements are made using batch assay and, therefore, represent release rates at 0 ml/min flow rate. The results are tabulated in Table 7 and graphically illustrated in FIG. 14. Concentrations of the antiproliferative drug are in μg/ml.

[10] = test system: PTFE A-V graft, venous anastamosis; assay: PTFE A-V graft study, histological scoring of graft explants; format: in vivo
Source text: A 6.0 mm PTFE graft was anastamosed between the carotid artery and the jugular vein. A total of 19 animals were utilized for this study. At the time of surgical construction of the A-V graft, collagen matrix with or without the drug was implanted at the site of venous anastamosis. Five animals served as controls (Group A, plain collagen matrix, no drug); the remaining 14 animals received treatment. They were divided into two equal groups (B and C) of seven animals each. […] Animals (n=13) were euthanized after 1 month. Tissues were formalin fixed and sent for histology.
Histological assessment of graft explants was performed by examining the following components: (1) the venous anastamotic site; (a) luminal and (b) adventitial surfaces, (2) the venous end away from the anastamosis; (c) luminal and (d) adventitial surfaces and (3) the PTFE graft; (e) luminal and (f) abluminal surfaces away from the anastamosis (FIG. 2). The following parameters were evaluated: intimal thickening, inflammation, thrombus, fibrosis, hemorrhage/fibrin and calcification or any other pathological changes observed. Histological evaluation was scored on a 0 through 4 scale, where 0=no significant change, 1=minimal, 2=mild, 3=moderate and 4=severe.
P-values obtained from semiquantitative analysis of histological findings using ANOVA (t-test unpaired).

[11] = test system: PTFE vascular graft AV loop, venous anastomosis; assay: Porcine PTFE arterio-venous graft model with perivascular rapamycin collagen sleeve; format: in vivo; conditions: pigs
Method: A proof of principle study was performed using a porcine model. A total of six pigs were studied, two as controls and four as treated. A 6 mm PTFE vascular graft was anastomosed between the carotid artery on one side and the contralateral jugular vein. This created an arterio-venous (AV) loop that is similar in construction to the human hemodialysis access loop.
The animals were euthanized and the relevant segments dissected. […] Tissues from treated and untreated animals were obtained, and RNA was prepared and reverse transcribed to cDNA, which was amplified for housekeeping gene b-actin and p21 by PCR.

[12] = test system: smooth muscle cell; assay: Inhibitory concentrations for smooth muscle cell in culture media
[13] = test system: smooth muscle cell; assay: Heparin inhibition of smooth muscle cell proliferation; format: cell-based
Source text: In addition, diffusion of heparin from the sleeve can prevent thrombotic events on the inner surface of the shunt and damaged vessel wall for longer periods of time. Furthermore, the concentration of soluble heparin can be increased up to 20,000 U/cm^2 without changing the mechanical characteristics of the matrix. Therefore, anti-smooth muscle cell proliferation as well as antithrombotic effect can be prolonged.

[14] = In vitro elution of heparin from collagen-fibrin sleeve with rapamycin and heparin; format: physicochemical; conditions: for Eluted Heparin Mass: buffer replenished each day
Source text: Combining macro- and micro-porosity may increase capacity of the device. Collagen and fibrin matrices were mixed to obtain such a combination. In addition, good mechanical characteristics of collagen improved stability of fibrin.
The collagen fibrin sheaths loaded with medicine (thickness 2 mm) were formed as tubular structures and externally crosslinked using high a concentration of glutaraldehyde (25%) for one minute. This sleeve was made planar on ten occasions, and the spiral shape was restored each time. […] In vitro elution of heparin continues for seven days. Heparin concentration was measured as in Example 10. Buffer for the dilution was replenished each day.

Molecule	Fibroblast Inhibition % [1] [%]	Elastase Activity % [3] [%]	Collagenase Activity % [4] [%]	SMC Inhibition % [5] [%]	effect on proliferation (new DNA synthesis) [7]	effect on proliferation (new DNA synthesis) [8]	further results
Cc1c2oc3c(C)ccc(C(=O)N[C@@H]4C(=O)N[C@H](C(C)C)C(=O)N5CCC[C@H]5C(=O)N(C)CC(=O)N(C)[C@@H](C(C)C)C(=O)O[C@@H]4C)c3nc-2c(C(=O)N[C@@H]2C(=O)N[C@H](C(C)C)C(=O)N3CCC[C@H]3C(=O)N(C)CC(=O)N(C)[C@@H](C(C)C)C(=O)O[C@@H]2C)c(N)c1=O [Actinomycin D] (I: T[dV]P[Sar][NMeV] / II: T[dV]P[Sar][NMeV]; ester I:1-I:C, II:1-II:C; linker I:N-II:N via Actinocin(9to1))	35 ± 8	84 ± 11	55 ± 9	44 ± 11	–	–	duration of suppression of cell growth [2]: suppresses cell growth for only a short period of time
C[C@@H]1C[C@H]2[C@@H]3CCC4=CC(=O)C=C[C@]4(C)[C@@]3(F)[C@@H](O)C[C@]2(C)[C@@]1(O)C(=O)CO [Dexamethasone]	–	–	–	–	–	–	Chemical stability through sheet formation, drying storage, and elution process [6]: confirmed
CN(Cc1cnc2nc(N)nc(N)c2n1)c1ccc(C(=O)N[C@@H](CCC(=O)O)C(=O)O)cc1 [Methotrexate]	28 ± 6	14 ± 3	23 ± 12	32 ± 9	–	–	–
CC(=O)O[C@H]1C(=O)[C@@]2(C)[C@H]([C@H](OC(=O)c3ccccc3)[C@]3(O)C[C@H](OC(=O)[C@H](O)[C@@H](NC(=O)c4ccccc4)c4ccccc4)C(C)=C1C3(C)C)[C@]1(OC(C)=O)CO[C@@H]1C[C@@H]2O [Paclitaxel]	62 ± 11	90 ± 4	98 ± 5	88 ± 6	inhibit proliferation	inhibit proliferation	–
CO[C@H]1C[C@@H]2CC[C@@H](C)[C@@](O)(O2)C(=O)C(=O)N2CCCC[C@H]2C(=O)O[C@H]([C@H](C)C[C@@H]2CC[C@@H](O)[C@H](OC)C2)CC(=O)[C@H](C)/C=C(\C)[C@@H](O)[C@@H](OC)C(=O)[C@H](C)C[C@H](C)/C=C/C=C/C=C/1C [Rapamycin, (3S,6R,7E,9R,10R,12R,14S,15E,17E,19E,21S,23S,26R,27R,34aS)-9,10,12,13,14,21,22,23,24,25,26,27,32,33,34,34a-hexadecahydro-9,27-dihydroxy-3-[(1R)-2[(1S,3R,4R)-4-hydroxy-3-methoxycyclohexyl]-1-methylethyl]10,21-dimethoxy-6,8,12,14,20,26-hexamethyl-23,27-epoxy-3H-pyrido[2,1-c][1,4] oxaazacyclohentriacontine-1,5,11,28,29 (4H,6H,31H)-pentone]	90 ± 12	–	137 ± 8	94 ± 5	inhibit proliferation	inhibit proliferation	time of peak release from saturated collagen matrix [9]: about seven; Collagen degradation ([10]; Dose 2 compared with the control group): significant; degree of fibrosis ([10]; control group vs. treatment groups): significant difference; degree of inflammation ([10]; treated vs controls): no statistical difference; Expression of p21 mRNA in venous tissue at the perianastamotic site ([11]; 30 days, PCR, not in controls): observed; neointimal hyperplasia at venous anastomosis ([11]; collagen sleeve approximately 500 μg/cm^2, 30 days): minimal to absent; luminal patency of the vein and the graft ([11]; collagen sleeve approximately 500 μg/cm^2, 30 days, vs controls): significantly higher luminal patency; duration of suppression of cell growth [2]: suppression of cell growth continued throughout the observation period; Inhibitory concentrations for smooth muscle cell [12]: 0.001 to 0.005 µg/mL
C=CC[C@@H]1/C=C(\C)C[C@H](C)C[C@H](OC)[C@H]2O[C@@](O)(C(=O)C(=O)N3CCCC[C@H]3C(=O)O[C@H](/C(C)=C/[C@@H]3CC[C@@H](O)[C@H](OC)C3)[C@H](C)[C@@H](O)CC1=O)[C@H](C)C[C@@H]2OC [Tacrolimus]	–	–	–	–	sparing endothelial cells	preferentially inhibit new DNA synthesis in human smooth muscle cells	–
CN(C)[C@@H]1C(O)=C(C(N)=O)C(=O)[C@@]2(O)C(O)=C3C(=O)c4c(O)cccc4[C@@](C)(O)[C@H]3C[C@@H]12 [Tetracycline]	13 ± 5	–	–	11 ± 8	–	–	–
Heparin	–	–	–	–	–	–	concentration that effectively inhibits smooth muscle cell proliferation [13]: about 100 u/ml; duration of in vitro elution of heparin [14]: seven; Eluted Heparin Mass ([14]; Time 0 days): 0 u/ml; Eluted Heparin Mass ([14]; Time 1 days): 341 u/ml; Eluted Heparin Mass ([14]; Time 2 days): 275 u/ml; Eluted Heparin Mass ([14]; Time 3 days): 188 u/ml; Eluted Heparin Mass ([14]; Time 4 days): 103 u/ml; Eluted Heparin Mass ([14]; Time 5 days): 57 u/ml; Eluted Heparin Mass ([14]; Time 6 days): 24 u/ml; Eluted Heparin Mass ([14]; Time 7 days): 8 u/ml; time for which eluted heparin can significantly inhibit smooth muscle cell proliferation ([14]; from the elution profile and about 100 u/ml): at least four
